As a reminder, the MIC is the smallest concentration in the dilution series that meets the test's criterion for growth inhibition.

The results in this text go back to PMC7168207, “Dibasic Derivatives of Phenylcarbamic Acid as Prospective Antibacterial Agents Interacting with Cytoplasmic Membrane” (Antibiotics, 2020).

Holding throughout (test): synergy with antibiotics (FIC index, checkerboard)
Type in all cases: cell-based, Enterococcus faecalis

One assay relates to VRE 368. The following applies: Enterococcus, VRE, VRE 368; tested compound/antibiotic; read-out: MIC of each antibacterial drug alone observed in the synergy experiment. The source says: (§1) Representatives from various classes were chosen in order to study the potential difference in synergistic activity according to the diverse mechanisms of action and resistance of these drugs. The method of minimal fractional inhibitory concentration (FIC) index (FICI) in a microtitration plate was used. FICI ≤ 0.5 means synergy; 0.5 < FICI < 1 means additivity; 1 ≤ FICI < 4 means indifference; and FICI ≥ 4 means antagonism.
(§2) For synergy effect study, a method of fractional inhibitory concentration was used. […] Raw H was used for the evaluation of MIC(A); column 12 was used for evaluation of MIC(B). The plate was inoculated by the bacterial suspension to reach final concentration of 5 × 10^5 CFU/mL in the wells. The fractional inhibitory concentration (FIC) index was calculated using the concentrations in the first nonturbid (clear) well found in each row and column along the turbidity/nonturbidity interface. To interpret the combined effect, the lowest FICI was used. A ΣFIC ≤ 0.5 means synergy; 0.5 < ΣFIC < 1 means additivity; 1 ≤ ΣFIC < 4 means indifference; and ΣFIC ≥ 4 means antagonism. The tests were made in duplicate, and the results were averaged.

The test system of another assay is VRE 342B. The following applies: VRE 342B.
Excerpt: as §1, §2

The next assay concerns VRE 725B. The conditions noted are these: Enterococcus.
Excerpt: as §1
The used VRE strains were isolated from American crows by Oravcova et al., and their genetic profiles were characterized. All the VRE strains were carrying genes vanA, tetM, and ermB. Strains VRE 368 and VRE 725B carried gene aac, which provided acquired aminoglycoside resistance.
as §2

As for `CNC(C)C1CCC(N)C(OC2C(N)CC(N)C(OC3OCC(C)(O)C(NC)C3O)C2O)O1` (stereo not shown) [GEN, gentamicin, reference compound], the MIC in the assay with VRE 368 was 64 µg/mL; with VRE 342B (Enterococcus, tested compound/antibiotic, read-out: MIC of each antibacterial drug alone observed in the synergy experiment), 32 µg/mL; in the assay with VRE 725B, over 2000 µg/mL. The “concentrations of the tested compound/clinically used antibiotic providing additivity or synergy” value with VRE 342B (in the combination of that line) is recorded as 8 µg/mL.
